According to patent US8722849B2, “Polypeptides” (Novo Nordisk A/S, priority 2011, dated 2014):
≈ marks a conversion by molar mass, not a printed value. Where two headings read alike, the source gives them in different places. Starred links: 1 amine or outer side, 2 acyl side, 3 side chain; linkers in the order of their positions; H or OH if unused. Positions of bridges follow the written chain, without caps; N, C: chain ends. Residues, ends and D or L forms follow the SMILES beside them. *: point of attachment. C20 diacid = O=C(O)CCCCCCCCCCCCCCCCCCC(=O)*; γGlu = O=C(O)[C@H](CCC(=O)[*:2])N[*:1]

Legend:
[1] = target: T1, human calcitonin receptor (Homo sapiens, UniProt P30988); experiment: Assay (II)a functional CRE-luciferase assay, human calcitonin receptor; type: cell-based; conditions: Table 7; human calcitonin (CTa) receptor
T1 construct: expressed in transfected cells; host or cells: BHK570
T1 sequence (P30988 25-474): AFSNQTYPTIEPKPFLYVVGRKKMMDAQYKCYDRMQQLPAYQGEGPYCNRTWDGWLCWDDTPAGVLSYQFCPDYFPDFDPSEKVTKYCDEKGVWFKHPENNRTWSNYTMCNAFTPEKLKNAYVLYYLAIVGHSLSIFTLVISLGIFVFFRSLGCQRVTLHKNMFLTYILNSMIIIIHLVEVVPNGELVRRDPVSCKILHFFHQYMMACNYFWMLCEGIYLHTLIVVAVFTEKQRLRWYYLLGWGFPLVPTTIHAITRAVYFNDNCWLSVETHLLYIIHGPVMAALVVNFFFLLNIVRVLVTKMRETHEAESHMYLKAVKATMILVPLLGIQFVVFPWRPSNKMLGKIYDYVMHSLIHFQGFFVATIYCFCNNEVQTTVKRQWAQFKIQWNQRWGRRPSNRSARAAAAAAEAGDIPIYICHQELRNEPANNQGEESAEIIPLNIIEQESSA

[2] = target: T2, human amylin receptor (amylin 3(a) receptor: human calcitonin receptor + RAMP-3) (Homo sapiens, UniProt O60896+P30988); experiment: Assay (II)a functional CRE-luciferase assay, human amylin receptor; type: cell-based; conditions: Table 2; BHK amylin 3(a)-receptor/CRE-luc cells
T2 construct: expressed in transfected cells; host or cells: BHK570
T2 sequence (P30988 25-474): T1 sequence (P30988 25-474)
T2 sequence (O60896 24-148 partner): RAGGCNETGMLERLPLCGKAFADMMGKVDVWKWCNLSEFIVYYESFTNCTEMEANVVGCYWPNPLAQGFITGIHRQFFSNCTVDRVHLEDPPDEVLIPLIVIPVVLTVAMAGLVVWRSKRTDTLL

[3] = Assay (III) ThT fibrillation assay for physical stability; type: physicochemical
Outline: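 Freshly prepared formulations, pH-adjusted, with 1 μM ThT; four or eight replicates incubated at 37 °C under 960 rpm orbital shaking. Fluorescence (ex 444/em 485 nm) read every 20 min; […]. Peptide concentration measured by RP-HPLC before and after the run.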

[4] = Assay (IV) determination of solubility; type: physicochemical
Outline: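 Solubility was profiled across pH 3.0–8.0 after 18 hours at room temperature: a ~500 nmol/ml aqueous polypeptide solution was diluted 1:1 into 100 mM glycylglycine or bistrispropane buffers. After centrifugation, HPLC gave the dissolved concentration.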

[5] = bistrispropane buffer, pH 6, pH 6.0, read-out: Solubility pH 6.0
[6] = bistrispropane buffer, pH 6.5, pH 6.5, read-out: Solubility pH 6.5
[7] = bistrispropane buffer, pH 7, pH 7.0, 18 hours at room temperature, Table 3, read-out: Solubility pH 7.0
[8] = bistrispropane buffer, pH 7, pH 7.0, Table 8, read-out: Solubility pH 7.0
[9] = bistrispropane buffer, pH 7, pH 7.0, read-out: Solubility pH 7.0
[10] = bistrispropane buffer, pH 7.5, pH 7.5, read-out: Solubility pH 7.5
[11] = bistrispropane buffer, pH 8, pH 8.0, read-out: Solubility pH 8.0
[12] = glycylglycine buffer, pH 3, pH 3.0, read-out: Solubility pH 3.0
[13] = glycylglycine buffer, pH 4, pH 4.0, 18 hours at room temperature, Table 2, read-out: Solubility pH 4.0
[14] = glycylglycine buffer, pH 4, pH 4.0, read-out: Solubility pH 4.0
[15] = glycylglycine buffer, pH 5, pH 5.0, read-out: Solubility pH 5.0

| Compound | EC50 [1] [nM] | EC50 [2] [nM] | ThT pH 4.0 lag time ([3]; Table 8) [h] | ThT pH 4.0 lag time ([3]; ThT fibrillation assay) [h] | ThT pH 4.0 lag time (h) ([3]; ThT fibrillation assay) | solubility at 18 h [4, 5] [µM] | solubility at 18 h [4, 6] [µM] | solubility at 18 h [4, 7] [µM] | solubility at 18 h [4, 8] [µM] | solubility at 18 h [4, 9] [µM] | solubility at 18 h [4, 10] [µM] | solubility at 18 h [4, 11] [µM] | solubility at 18 h [4, 12] [µM] | solubility at 18 h [4, 13] [µM] | solubility at 18 h [4, 14] [µM] | solubility at 18 h [4, 15] [µM] | ThT pH 4.0 lag time ([3]; Table 9) [h] | solubility at 18 h ([4]; bistrispropane buffer, pH 7, pH 7.0, Table 9, read-out: Solubility pH 7.0) [µM] | solubility at 18 h ([4]; bistrispropane buffer, pH 7.5, pH 7.5, Table 9, read-out: Solubility pH 7.5) [µM] |
| --- | --- | --- | --- | --- | --- | --- | --- | --- | --- | --- | --- | --- | --- | --- | --- | --- | --- | --- | --- |
| CC[C@H](C)[C@H](NC(=O)[C@@H]1CCCN1C(=O)CNC(=O)[C@H](Cc1ccccc1)NC(=O)[C@H](CC(N)=O)NC(=O)[C@H](CC(N)=O)NC(=O)[C@H](CO)NC(=O)[C@H](CO)NC(=O)[C@H](Cc1c[nH]cn1)NC(=O)[C@H](Cc1c[nH]cn1)NC(=O)[C@H](CC(C)C)NC(=O)[C@H](Cc1ccccc1)NC(=O)[C@H](CCC(=O)O)NC(=O)[C@H](C)NC(=O)[C@H](CC(C)C)NC(=O)[C@H](CCCNC(=N)N)NC(=O)[C@H](CCC(N)=O)NC(=O)[C@@H](NC(=O)[C@H](C)NC(=O)[C@@H]1CSSC[C@H](NC(=O)CNC(=O)CC[C@H](NC(=O)CCCCCCCCCCCCCCCCCCC(=O)O)C(=O)O)C(=O)N[C@@H](CC(N)=O)C(=O)N[C@@H]([C@@H](C)O)C(=O)N[C@@H](C)C(=O)N[C@@H]([C@@H](C)O)C(=O)N1)[C@@H](C)O)C(=O)N[C@@H](CC(C)C)C(=O)N1CCC[C@H]1C(=O)N1CCC[C@H]1C(=O)N[C@H](C(=O)N[C@@H](CC(N)=O)C(=O)N[C@H](C(=O)NCC(=O)N[C@@H](CO)C(=O)N[C@@H](CC(N)=O)C(=O)N[C@H](C(=O)N1CCC[C@H]1C(N)=O)[C@@H](C)O)C(C)C)[C@@H](C)O [Example 91, N-alpha-[(S)-4-Carboxy-4-(19-carboxynonadecanoylamino)butyryl]-[Gly1,Glu14,His17,Pro37]-pramlintide] ({C20 diacid-γGlu}-GCNTATCATQRLAEFLHHSSNNFGPILPPTNVGSNTP-NH2; disulfide 2-7 (inferred); C-terminus assumed) | 0.052 | 0.054 | 29 | 29 | 29 | > 200 | > 200 | > 200 | > 200 | > 200 | > 200 | > 200 | > 200 | > 200 | > 200 | > 200 | – | – | – |
| CC[C@H](C)[C@H](NC(=O)[C@@H]1CCCN1C(=O)CNC(=O)[C@H](Cc1ccccc1)NC(=O)[C@H](CC(N)=O)NC(=O)[C@H](CCC(N)=O)NC(=O)[C@H](CO)NC(=O)[C@H](CO)NC(=O)[C@H](Cc1c[nH]cn1)NC(=O)[C@H](Cc1c[nH]cn1)NC(=O)[C@H](CC(C)C)NC(=O)[C@H](Cc1ccccc1)NC(=O)[C@H](CCC(=O)O)NC(=O)[C@H](C)NC(=O)[C@H](CC(C)C)NC(=O)[C@H](CCCNC(=N)N)NC(=O)[C@H](CCC(N)=O)NC(=O)[C@@H](NC(=O)[C@H](C)NC(=O)[C@@H]1CSSC[C@H](NC(=O)[C@H](CCCCN)NC(=O)CC[C@H](NC(=O)CCCCCCCCCCCCCCCCCCC(=O)O)C(=O)O)C(=O)N[C@@H](CC(N)=O)C(=O)N[C@@H]([C@@H](C)O)C(=O)N[C@@H](C)C(=O)N[C@@H]([C@@H](C)O)C(=O)N1)[C@@H](C)O)C(=O)N[C@@H](CC(C)C)C(=O)N1CCC[C@H]1C(=O)N1CCC[C@H]1C(=O)N[C@H](C(=O)N[C@@H](CC(N)=O)C(=O)N[C@H](C(=O)NCC(=O)N[C@@H](CO)C(=O)N[C@@H](CC(N)=O)C(=O)N[C@H](C(=O)N1CCC[C@H]1C(N)=O)[C@@H](C)O)C(C)C)[C@@H](C)O [Example 130, N-alpha-[(S)-4-Carboxy-4-(19-carboxynonadecanoylamino)butyryl]-[Glu14,His17,Gln21,Pro37]-pramlintide] ({C20 diacid-γGlu}-KCNTATCATQRLAEFLHHSSQNFGPILPPTNVGSNTP-NH2; disulfide 2-7 (inferred)) | 0.0315 | 0.0555 | >45 | >45 | >45 | > 200 | > 200 | > 200 | > 200 | > 200 | > 200 | > 200 | > 200 | > 200 | > 200 | > 200 | >45 | > 200 | > 200 |
| CC[C@H](C)[C@H](NC(=O)[C@@H]1CCCN1C(=O)CNC(=O)[C@H](Cc1ccccc1)NC(=O)[C@H](CC(N)=O)NC(=O)[C@H](CC(N)=O)NC(=O)[C@H](CO)NC(=O)[C@H](CO)NC(=O)[C@H](Cc1c[nH]cn1)NC(=O)[C@@H](NC(=O)[C@H](CC(C)C)NC(=O)[C@H](Cc1ccccc1)NC(=O)[C@H](CCC(=O)O)NC(=O)[C@H](C)NC(=O)[C@H](CC(C)C)NC(=O)[C@H](CCCNC(=N)N)NC(=O)[C@H](CCC(N)=O)NC(=O)[C@@H](NC(=O)[C@H](C)NC(=O)[C@@H]1CSSC[C@H](NC(=O)CC[C@H](NC(=O)CCCCCCCCCCCCCCCCCCC(=O)O)C(=O)O)C(=O)N[C@@H](CC(N)=O)C(=O)N[C@@H]([C@@H](C)O)C(=O)N[C@@H](C)C(=O)N[C@@H]([C@@H](C)O)C(=O)N1)[C@@H](C)O)C(C)C)C(=O)N[C@@H](CC(C)C)C(=O)N1CCC[C@H]1C(=O)N1CCC[C@H]1C(=O)N[C@H](C(=O)N[C@@H](CC(N)=O)C(=O)N[C@H](C(=O)NCC(=O)N[C@@H](CO)C(=O)N[C@@H](CC(N)=O)C(=O)N[C@H](C(=O)N1CCC[C@H]1C(N)=O)[C@@H](C)O)C(C)C)[C@@H](C)O [Example 108, N-alpha-[(S)-4-Carboxy-4-(19-carboxynonadecanoylamino)butyryl]-[des1,Glu14,Pro37]-pramlintide] ({C20 diacid-γGlu}-CNTATCATQRLAEFLVHSSNNFGPILPPTNVGSNTP-NH2; disulfide 1-6 (inferred)) | 0.0735 | 0.088 | – | – | 2.7 | 193 (≈ 815 µg/mL) | > 200 | > 200 | – | > 200 | > 200 | > 200 | > 200 | > 200 | > 200 | > 200 | – | – | – |
